In BindingDB's records for doi:10.1074/jbc.M406801200 (The Scripps Research Institute, 2004):

The molecules below were run against Bifunctional purine biosynthesis protein ATIC (Homo sapiens, UniProt P31939) (assay: AICAR Tfase Inhibition Assay). Settings: pH 7.5; 22 °C.
Procedure: The human ATIC enzyme was used for the inhibition assay. The assay buffer was flushed with nitrogen to minimize oxidization of cofactor 10-f-THF. The reaction was initiated by adding the substrate AICAR to reaction mixtures containing ATIC, test compounds, and different concentrations of cofactor. […] The THF was generated in the transfer reaction of the formyl group from cofactor to AICAR to produce 5-formyl-AICAR. IC50 values were measured from dose-response curves.

Sequence of Bifunctional purine biosynthesis protein ATIC (P31939 whole entry): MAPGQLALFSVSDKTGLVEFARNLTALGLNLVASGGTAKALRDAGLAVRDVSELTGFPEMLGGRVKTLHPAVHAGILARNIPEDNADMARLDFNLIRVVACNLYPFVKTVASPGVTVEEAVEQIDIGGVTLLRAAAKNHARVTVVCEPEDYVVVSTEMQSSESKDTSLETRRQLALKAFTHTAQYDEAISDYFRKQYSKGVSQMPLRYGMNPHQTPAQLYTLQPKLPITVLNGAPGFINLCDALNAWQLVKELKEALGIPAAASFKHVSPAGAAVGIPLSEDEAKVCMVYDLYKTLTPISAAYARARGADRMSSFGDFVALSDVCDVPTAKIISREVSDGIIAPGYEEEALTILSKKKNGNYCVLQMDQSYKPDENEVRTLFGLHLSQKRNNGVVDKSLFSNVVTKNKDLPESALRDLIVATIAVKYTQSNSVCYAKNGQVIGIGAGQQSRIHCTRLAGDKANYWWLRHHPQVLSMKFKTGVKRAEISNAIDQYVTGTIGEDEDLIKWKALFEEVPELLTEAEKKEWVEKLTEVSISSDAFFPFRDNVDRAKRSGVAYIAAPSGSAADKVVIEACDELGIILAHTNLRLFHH

Row | SMILES | IC50
1 | Cc1cc(N=Nc2c(C)[nH]n(-c3ccc(S(=O)(=O)O)cc3)c2=O)ccc1S(=O)(=O)Nc1ccccc1 | 11.6 µM
2 | Cc1[nH]n(-c2ccc(S(=O)(=O)O)cc2)c(=O)c1N=Nc1cc(Cl)cc(S(=O)(=O)O)c1C(=O)O [4-chloro-2-[(E)-2-[5-hydroxy-3-methyl-1-(4-sulfophenyl)-1H-pyrazol-4-yl]diazen-1-yl]-6-sulfobenzoic acid] | 41.6 µM
3 | Cc1ccc(OS(=O)(=O)c2ccc(N=Nc3c(C)[nH]n(-c4ccc(Cl)cc4S(=O)(=O)O)c3=O)cc2)cc1 [5-chloro-2-{5-hydroxy-3-methyl-4-[(E)-2-[4-(4-methylphenoxysulfonyl)phenyl]diazen-1-yl]-1H-pyrazol-1-yl}benzene-1-sulfonic acid] | 3.3 µM
4 | Cc1[nH]n(-c2cc(Cl)c(S(=O)(=O)O)cc2Cl)c(=O)c1N=Nc1ccc(S(=O)(=O)O)cc1 [yellow 2G] | 20.1 µM
5 | O=S(=O)(O)Oc1c(-c2sc3c(ccc4cccc(Cl)c43)c2OS(=O)(=O)O)[nH]c2ccc(Br)cc12 [{4-[5-bromo-3-(sulfooxy)-1H-indol-2-yl]-13-chloro-3-thiatricyclo[7.4.0.0^{2,6}]trideca-1(9),2(6),4,7,10,12-hexaen-5-yl}oxidanesulfonic acid] | 1.4 µM
